{"source": "paper PMC9228535", "about": "“Antistaphylococcal Activities and ADME-Related Properties of Chlorinated Arylcarbamoylnaphthalenylcarbamates” (Pharmaceuticals, 2022)", "key": {"MRSA SA 3202": {"tested_on": "MRSA SA 3202", "assay": "MIC, microtitration broth method", "type": "cell-based", "conditions": "Staphylococcus aureus, 24 h", "method": "(§1) All the investigated compounds were screened for in vitro antibacterial activity against the reference and quality control strain Staphylococcus aureus ATCC 29213 and clinical isolates of methicillin-resistant S. aureus (MRSA) 63718, SA 630, and SA 3202 [14]. Activities are expressed as the minimum inhibitory concentrations (MICs), see Table 2. In addition to the MICs, the minimum bactericidal concentrations (MBCs) were also determined.\n(§2) In vitro antibacterial activity of the synthesized compounds was evaluated against representatives of multidrug-resistant bacteria, three clinical isolates of methicillin-resistant S. aureus: clinical isolate of animal origin, MRSA 63718 (Department of Infectious Diseases and Microbiology, Faculty of Veterinary Medicine, University of Veterinary Sciences Brno, Czech Republic), carrying the mecA gene; and MRSA SA 630 [46] and MRSA SA 3202 [46] (National Institute of Public Health, Prague, Czech Republic), both of human origin. Suspected colonies were confirmed by PCR; a 108bp fragment specific for S. aureus was detected. All isolates were tested for the presence of the mecA gene encoding methicillin resistance. […] Vancomycin-susceptible methicillin-susceptible S. aureus (VS-MSSA) ATCC 29213, obtained from the American Type Culture Collection, was used as the reference and quality control strain. Enterococcus faecalis ATCC 29212 was obtained from the American Type Culture Collection and used as the reference and quality control strain.\n(§3) The minimum inhibitory concentrations (MICs) were evaluated by the microtitration broth method according to the CLSI [64, 65] with some modifications. The compounds were dissolved in DMSO (Sigma, St. Louis, MO, USA) to get a concentration […] and diluted in a microtitration plate in an appropriate medium, namely, Cation Adjusted Mueller–Hinton (CaMH, Oxoid, Basingstoke, UK) for staphylococci (S. aureus ATCC 29213, clinical isolates of MRSA 63718, SA 630, and SA 3202) and brain heart infusion (BHI, Oxoid) for E. faecalis ATCC 29212, to reach the final concentration of 256-0.125 µg/mL. The plate was inoculated by the tested microorganisms. The final concentration of bacterial cells was 10^5 for bacteria. Ampicillin (Sigma) was used as reference drugs. A drug-free control and a sterility control were included. The plates were incubated for 24 h at 37 °C for staphylococci and E. faecalis ATCC 29212 (stability evaluation of the carbamates, see Supplementary materials, Table S1). […] The experiments were repeated three times."}, "MRSA SA 630": {"tested_on": "MRSA SA 630", "assay": "MIC, microtitration broth method", "type": "cell-based", "conditions": "Staphylococcus aureus, 24 h", "method": "as §1, §2, §3"}, "MRSA 63718": {"tested_on": "MRSA 63718", "assay": "MIC, microtitration broth method", "type": "cell-based", "conditions": "Staphylococcus aureus, MRSA, 24 h", "method": "as §1, §2, §3"}, "[1]": {"tested_on": "Staphylococcus aureus ATCC 29213", "assay": "MIC, microtitration broth method", "type": "cell-based", "conditions": "ATCC29213, 24 h", "method": "as §1, §2, §3"}, "THP-1 cells": {"tested_on": "THP-1 cells", "assay": "In vitro cytotoxicity assay (WST-1)", "type": "cell-based", "conditions": "Homo sapiens, THP-1, 24 h", "method": "Preliminary in vitro cytotoxicity screening of the investigated compounds was performed using human monocytic leukemia THP-1 cells, see Table 2. The ability to inhibit the human cancer cell viability (IC50) of the compounds was compared to camptothecin toxicity (0.16 ± 0.07 μM). […] However, these values are up to two orders of magnitude higher than their significant antistaphyloccocal concentrations. This fact is also taken into account in the calculated selectivity index (SI), Table 2, where for only three compounds the SI is <20, while for the rest of the agents SI is >20, and for some derivatives even 100 and more. Thus, based on all these observations, it can be concluded that all the tested derivatives can be considered as in vitro non-toxic compounds for the subsequent design of new therapeutic agents.\nThe human THP-1 cell line (European Collection of Cell Cultures, Salisbury, UK) was cultured in RPMI 1640 medium supplemented with 10% fetal bovine serum, 2% L-glutamine, 1% penicillin, and streptomycin at 37 °C with 5% CO2. Cells were passaged at approximately 1-week intervals. All the tested compounds were prepared and dissolved as mentioned in our previous work."}, "[2]": {"assay": "Stability of ethyl carbamate by HPLC (decomposition rate, half-life)", "type": "physicochemical", "conditions": "buffer, read-out: half-life τ0,5 (converted)", "method": "as §3, with “times. […]” for “times.”\nevaluate of ethyl carbamate stability. A chromatographic column XTerra® Phenyl 3.5 μm, 100 × 4.6 mm (Waters Corp., Milford, MA, USA) was used. The HPLC separation process was monitored by ChemStation for LC 3D systems (Agilent Technologies). Isocratic elution by a mixture of acetonitrile (HPLC grade, 60.0%) and phosphate buffer, pH 2.5 (40%) as a mobile phase was used. The total flow of the column was 1.0 mL/min, injection 20 μL, the time of analysis was 8 min, column temperature 40 °C, and sample temperature 10 °C. The detection wavelength of 254 nm was chosen. The retention time (tR) of carbamate 2 was 4.92 ± 0.05 min and of the pattern anilide 3.12 ± 0.05 min.\nTable S1. Ethyl carbamate 2 decomposition rate and half-life values."}, "[3]": {"tested_on": "Enterococcus faecalis ATCC 29212", "assay": "MIC, microtitration broth method", "type": "cell-based", "method": "as §2, §3"}}, "note": "Where two headings read alike, the source gives them in different places."}
{"smiles": "CCNC(=O)Oc1c(C(=O)Nc2cc(Cl)c(Cl)cc2Cl)ccc2ccccc12", "note": "[Compound 2, 2-[N-(2,4,5-Trichlorophenyl)carbamoyl]naphthalen-1-yl ethyl carbamate]", "values": [{"measurement": "MIC", "setting": "MRSA SA 3202", "value": 0.018, "unit": "µM"}, {"measurement": "MIC", "setting": "MRSA SA 630", "value": 0.018, "unit": "µM"}, {"measurement": "MIC", "setting": "MRSA 63718", "value": 0.144, "unit": "µM"}, {"measurement": "MIC", "setting": "[1]", "value": 0.018, "unit": "µM"}, {"measurement": "IC50", "setting": "THP-1 cells", "value": "2.85 ± 0.17", "unit": "µM"}, {"measurement": "half-life", "setting": "[2]; pH 6", "value": 50.1, "unit": "days"}, {"measurement": "half-life", "setting": "[2]; pH 7", "value": 23.2, "unit": "days"}, {"measurement": "half-life", "setting": "[2]; pH 8", "value": 9.12, "unit": "days"}, {"measurement": "anti-enterococcal activity (in words)", "setting": "[3]; E. faecalis ATCC 29212", "value": "medium activity"}, {"measurement": "MIC", "setting": "[3]; Enterococcus faecalis, ATCC29212, 24 h", "value": 36.6, "unit": "µM"}]}
